Laboratory results from publication PMC12389586, “Anticancer Activity of Paclitaxel-Loaded Mesoporous Silica Nanoparticles in B16F10 Melanoma-Bearing Mice” (Pharmaceutics, 2025).

Experiments:
B16F10 spheroids = assay: Cytotoxicity and PTX accumulation in 3D cultured spheroid; assay type: cell-based; conditions: for spheroid growth / radius: 5 days, PTX 25 µg/mL or equivalent, CUR 200 µg/mL, TPGS 600 µg/mL, SMB7 200 µg/mL
Description: B16F10 cells were seeded at a density of 3 × 10^5 cells per well in an ultra-low attachment 96-well plate to facilitate spheroid formation. Immediately after seeding, the plate was centrifuged at […] for 15 min to promote cell aggregation. Following centrifugation, the spheroids were allowed to stabilize for 24 h before drug treatment. The spheroids were treated with the following conditions and grown for 5 days: control, 200 μg/mL of SMB7, 200 μg/mL of curcumin, 25 μg/mL of PTX, PS (equivalent to 25 μg/mL PTX), PS with curcumin (equivalent to 25 μg/mL PTX + 200 μg/mL curcumin), and PS with TPGS (equivalent to 25 μg/mL PTX + 600 μg/mL TPGS).
During the culture period, the spheroid radius was measured daily to assess tumor growth inhibition across different treatment groups. After five days, the spheroids were harvested, disrupted into a single-cell suspension, and analyzed for intracellular PTX and curcumin concentrations using LC–MS/MS. Additionally, the culture medium was collected from each well and analyzed to quantify the remaining extracellular concentrations of PTX and curcumin, providing further insights into drug uptake and retention within the spheroids.

β-tubulin = assay: Confocal staining of β-tubulin and nuclei; assay type: cell-based; conditions: B16F10 cells, 24 h; PTX 25 µg/mL or equivalent, CUR 200 µg/mL, TPGS 600 µg/mL, SMB7 200 µg/mL
Description: B16F10 cells were seeded at a density of 4 × 10^4 cells per well in a 24-well plate and cultured until a confluency of 80% was reached. Once the desired confluency was achieved, the culture medium was replaced with fresh media containing the following respective treatments: control, 200 μg/mL of SMB7, 200 μg/mL of curcumin, 25 μg/mL of PTX, PS (equivalent to 25 μg/mL PTX), PS with curcumin (equivalent to 25 μg/mL PTX + 200 μg/mL curcumin), and PS with TPGS (equivalent to 25 μg/mL PTX + 600 μg/mL TPGS).
Cells were incubated post-treatment for 24 h and then fixed and stained to visualize intracellular structures. DAPI was used for DNA staining to highlight nuclear morphology, and goat anti-Mouse IgG conjugated with FSD 594 was employed for β-tubulin staining to observe microtubule organization. As PTX primarily acts by stabilizing microtubules, fluorescence images were acquired using an LSM700 confocal laser scanning microscope (Carl Zeiss GmbH, Oberkochen, Germany). Confocal images were acquired at 100 × magnification to enhance the visualization of DNA and β-tubulin structures, enabling the assessment of PTX-induced cytoskeletal disruption and apoptosis-related nuclear changes.

B16F10 cells [1] = assay: Cell viability (MTT assay); assay type: cell-based; conditions: Mus musculus, B16-F10, 48 h exposure, 0–1000 nM PTX or equivalent
Description: B16F10 cells were seeded at a density of 4 × 10^4 cells per well in a 96-well plate and incubated at 37 °C in a 5% CO2 atmosphere for 24 h to allow cell attachment and stabilization before drug administration. After 24 h, the medium was replaced with fresh culture media containing various PTX formulations (i.e., PTX, PS, PS with CUR, PS with TPGS, and PS with verapamil) at increasing concentrations (0, 10, 20, 50, 100, 200, 500, and 1000 nM) of PTX or its equivalent amount.
After 48 h of drug exposure, MTT reagent (0.5 mg/mL in PBS, 15 μL) was added to each well, followed by an additional 4 h incubation to allow mitochondrial dehydrogenase enzymes in viable cells to reduce MTT into insoluble formazan crystals. The resulting formazan was then solubilized using 150 μL DMSO, and the absorbance was measured at 592 nm using an ultraviolet (UV) spectrophotometer. Cell viability was calculated relative to the untreated control group. Data were fitted using the inhibitory effect model v=Emax(1−[I]/IC50+[I]) . Emax and IC50 represent uninhibited cell viability (%) and the concentration of PTX (nM) at which half-maximal inhibition occurs. [I] represents the concentration of PTX.

[2] = In vitro drug release test (dialysis pouch); assay type: physicochemical; conditions: over 48 h; SBF pH 7.4, release medium SBF + 0.5% Tween 80
Description: The in vitro drug release of PTX from the formulation was measured as follows: PTX and PS (all containing 2 mg PTX) were placed in the cellulose membrane pouch (Snakeskin^TM Dialysis Tubing 10,000 MWCO; Thermo Fisher Scientific Inc.; Waltham, MA, USA), and 5 mL of SBF (pH 7.4) was added inside the cellulose membrane pouch. The cellulose membrane pouch was put into 50 mL of SBF containing 0.5% Tween 80 in a 250 mL beaker and shaken at 100 rpm in a dual-motion shaker (Finepcr; Gunpo-si, Republic of Korea). Samples (100 μL aliquots) were collected for 48 h, and then diluted 100-fold with mobile phase and injected into the LC-MS/MS system to measure the PTX concentration.
In this study, PS in 5 mL SBF was placed in a dialysis pouch, while the exterior release medium consisted of 50 mL of SBF + 0.5% Tween 80. This large external volume and surfactant content allowed the PTX released from the pouch to diffuse into the external medium and remain dissolved.

B16F10 cells [3] = assay: Apoptosis analysis by flow cytometry (Annexin V); assay type: cell-based; conditions: 24 h; equivalent to 25 μg/mL PTX (+200 μg/mL CUR, +600 μg/mL TPGS)
Description: B16F10 cells were seeded at a density of 8 × 10^4 cells in a cell culture dish and cultured until a confluency of 80% was reached. Upon reaching the desired confluency, the culture medium was aspirated and replaced with fresh medium containing one of the following treatments: control, PTX (25 μg/mL), PS (equivalent to 25 μg/mL PTX), PSC (equivalent to 25 μg/mL PTX + 200 μg/mL curcumin), and PSCT (equivalent to 25 μg/mL PTX + 200 μg/mL curcumin + 600 μg/mL TPGS).
After 24 h of treatment, the culture supernatant was collected into a 15 mL conical tube. Cells were then detached using 1.5 mL of trypsin, and the resulting cell suspension—including detached cells and debris—was combined with the previously collected medium in the same tube. The samples were centrifuged at 1000 rpm for 3 min, and the supernatant was carefully discarded. The cell pellet was resuspended in 1 mL of DMEM supplemented with 10% FBS and 1% penicillin–streptomycin. Subsequently, 100 μL of the Muse Annexin V and Dead Cell kit (Cytek Biosciences Inc., Fremont, CA, USA) was added to the cell suspension, and the samples were incubated at room temperature in the dark for 20 min. Apoptosis and cell viability were then assessed using the Guava® Muse® Cell Analyzer (Cytek Biosciences Inc., Fremont, CA, USA).

[4] = Biodistribution in B16F10 melanoma-bearing mice; assay type: in vivo, C57BL/6 mice; conditions: C57BL/6, mouse, subcutaneous, heart, lung, kidney, pancreas, liver and tumor tissues, read-out: PTX tissue concentration relative to plasma
Description: After the final injection, the mice from PTX + CUR, PSC, and PSCT groups were randomly subdivided into two time points (n = 5 for each subgroup; 2 h and 8 h post-administration) for pharmacokinetic and biodistribution analyses. At the designated time points (0.25, 1, and 2 h from the 2 h group; 0.5, 4, and 8 h from the 8 h group), blood samples (approximately 80 µL) were collected from the retro-orbital plexus of mice. For the PTX and CUR analyses, 30 µL of plasma aliquots were stored at −80 °C. At 2 h, the mice were anesthetized, and the organs (heart, lung, liver, kidney, pancreas, and tumor) were harvested, weighed, and homogenized using a MM400 Laboratory Ball Mixer Mill (Retsch, Haan, Germany). Aliquots (50 µL) of 20% tissue homogenates prepared using 10% MeOH were stored at −80 °C for subsequent analyses. […]
The biodistribution of PTX in various mouse tissues was quantified and expressed as a percentage of the injected dose per gram of tissue (%ID/g). […] The following formula was used to calculate the drug concentration in the tissue, which is measured (e.g., ng), normalized to the total injected dose, and further corrected based on the weight of the harvested tissue to standardize drug accumulation across different organs as follows: %ID/g=Drug amount in each organmg/Injected Dose mg×100×1/Organ weight (g) .

[5] = after 5 days of treatment, equivalent to 25 μg/mL PTX

| SMILES | spheroid growth / radius (B16F10 spheroids) | β-tubulin expression (microtubule integrity) (β-tubulin) | IC50 (B16F10 cells [1]) | Incorporated PTX (B16F10 spheroids; [5]) | PTX concentration (intracellular accumulation in spheroids) (B16F10 spheroids; [5]) | drug release [2] | early apoptosis (B16F10 cells [3]) | late apoptosis (Late Apop./Dead) (B16F10 cells [3]) | total apoptosis rate (B16F10 cells [3]) | Kp at 2 h [4] |
| --- | --- | --- | --- | --- | --- | --- | --- | --- | --- | --- |
| COc1cc(/C=C/C(=O)CC(=O)/C=C/c2ccc(O)c(OC)c2)ccc1O [CUR, Curcumin] | significantly suppressed the tumor growth of B16F10 spheroids | moderate reduction in β-tubulin expression |  |  |  |  |  |  |  |  |
| CC(=O)O[C@H]1C(=O)[C@@]2(C)[C@H]([C@H](OC(=O)c3ccccc3)[C@]3(O)C[C@H](OC(=O)[C@H](O)[C@@H](NC(=O)c4ccccc4)c4ccccc4)C(C)=C1C3(C)C)[C@]1(OC(C)=O)CO[C@@H]1C[C@@H]2O [PTX, Paclitaxel] | significantly suppressed the tumor growth of B16F10 spheroids | pronounced decrease in β-tubulin intensity | 283 nM | 20.3% | 5.09 ± 0.16 µg/mL | 6.58% | 11.5% | 9.8% | 21.3% | > 100 |
